Source: patent US8226963B2, “Feed-through lignin-pesticide compositions” (Wellmark International, priority 2005, dated 2012)
Where “and” joins values, the source holds several entries; their conditions need not be identical. Identical values can stand only once.

Assays:
Assay type in all cases: in vivo
[1] = Barium (BaSO4) passing into the manure of chickens; conditions: for Amount of Barium, % found in manure: 0.093% in feed
Source text: This example illustrates a determination of the maximum concentration of any active agent that will pass into the manure of chickens.
Briefly, chicken feed was formulated using a pulverized cattle bolus which contained barium in the form of BaSO4.

[2] = Enteric Matrix/Coating of Methoprene Feed Through Study in chickens; conditions: Feed Rate 23.8 ppm
Source text: This example illustrates a study of methoprene versus enteric coated methoprene. The results below indicate that there is no difference in % recovery between technical grade methoprene and enteric coated methoprene or matrix treated methoprene.

[3] = Methoprene found in manure of horses fed treated feed as top dressing; conditions: Average of Day 0-Day 10
Method: This example illustrates a study in horses comparing an inventive formulation containing a lignin-methoprene complex with a formulation containing free methoprene.
Four horses were fed the formulations for eleven days and their manure was tested every 24 hours.

[4] = Methoprene found in manure of cats fed treated cat food; conditions: for Calculated Methoprene (ppm) in manure: cats Q, S, T
Method: This example illustrates a study in cats comparing an inventive formulation containing lignin-methoprene complexes with a formulation containing free methoprene.
Three cats were fed the formulations for a week and their manure was tested every 24 hours.

[5] = Methoprene found in manure of cows fed treated feed as top dressing; conditions: Average of Day 1-Day 10
Method: This example illustrates a study in cattle comparing an inventive formulation containing a lignin-methoprene complex with a formulation containing free methoprene.
Four cows were fed the formulations for eleven days and their manure was tested every 24 hours.

[6] = horse Bettor Lad, AI fed 8.94 ppm

In the case of `O=S(=O)([O-])[O-].[Ba+2]` [Barium, BaSO4], the “% of initial BaSO4 found in manure” value ([1]; 4 hr.) is reported as 1.78%, the “Amount of Barium, % found in manure” value ([1]; 4 hr. after feeding) is reported as 0.00165% and the “% of initial BaSO4 found in manure” value ([1]; 24 hr.) is reported as 48.90%. The “Amount of Barium, % found in manure” value ([1]; 24 hr. after feeding) was 0.0455%, the “% of initial BaSO4 found in manure” value ([1]; 48 hr.) was 59.90% and the “Amount of Barium, % found in manure” value ([1]; 48 hr. after feeding) was 0.0557%. The “% of initial BaSO4 found in manure” value ([1]; 72 hr.) was 50.60% and the “Amount of Barium, % found in manure” value ([1]; 72 hr. after feeding) was 0.0471%.

For `COC(C)(C)CCCC(C)C/C=C/C(C)=C/C(=O)OC(C)C` (stereo not drawn) [free methoprene, methoprene], the “% Recovery” value [2] was 12.22%, the “Manure Rate ppm (methoprene)” value ([2]; feed Egg Buster) was 2.91 ppm and the “AI manure ppm” value [3, 6] was 1.29 ppm. For the same molecule, the Percent pass through [3, 6] was 14.4%, the “AI manure ppm” value ([3]; horse Dancer, AI fed 8.61 ppm) was 1.30 ppm and the Percent pass through ([3]; horse Dancer, AI fed 8.61 ppm) was 15.1%. For the same molecule, the “Avg. % pass through by Group” value ([3]; horses, two per group) was 14.75%, the “Day 1 Avg. methoprene in manure” value ([4]; cat food @ 36.2 ppm, 24 hr) was 0.63 ppm and the “Day 1 Avg. methoprene recovered in manure (%)” value ([4]; cat food @ 36.2 ppm, 24 hr) was “(1.7%)”. The “Day 2 Avg. methoprene in manure” value ([4]; cat food @ 36.2 ppm, 48 hr) was 2.2 ppm, the “Day 2 Avg. methoprene recovered in manure (%)” value ([4]; cat food @ 36.2 ppm, 48 hr) was “(6.1%)” and the “Day 3 Avg. methoprene in manure” value ([4]; cat food @ 36.2 ppm, 72 hr) was 1.8 ppm. The “Day 3 Avg. methoprene recovered in manure (%)” value ([4]; cat food @ 36.2 ppm, 72 hr) was “(5.0%)”, the “Day 4 Avg. methoprene in manure” value ([4]; cat food @ 36.2 ppm, 96 hr) was 1.9 ppm and the “Day 4 Avg. methoprene recovered in manure (%)” value ([4]; cat food @ 36.2 ppm, 96 hr) was “(5.2%)”. For the same molecule, the “Calculated Methoprene (ppm) in manure” value ([4]; cat food @ 36.2 ppm, Day 0 (0 hr)) was 0 ppm, the “Calculated Methoprene (ppm) in manure” value ([4]; cat food @ 36.2 ppm, Day 1 (24 hr), listed as Free Methoprene Lot # 491-166) was 0.6 ppm and 0.7 ppm and the “Calculated Methoprene (ppm) in manure” value ([4]; cat food @ 36.2 ppm, Day 2 (48 hr), listed as Free Methoprene Lot # 491-166) was 2.4 ppm and 2.5 ppm and 1.6 ppm. The “Calculated Methoprene (ppm) in manure” value ([4]; cat food @ 36.2 ppm, Day 3 (72 hr), listed as Free Methoprene Lot # 491-166) was 2.0 ppm and 1.5 ppm, the “amount of methoprene recovered from the manure of cats” value ([4]; range of daily averages Day 1-Day 4) was 1.7-6.1% and the AI manure ppm ([5]; cow 10 R/W, AI fed 8.94 ppm) was 0.16 ppm. For the same molecule, the Percent pass through ([5]; cow 10 R/W, AI fed 8.94 ppm) was 1.8%, the AI manure ppm ([5]; cow 16 Black, AI fed 12.58 ppm) was 0.35 ppm and the Percent pass through ([5]; cow 16 Black, AI fed 12.58 ppm) was 2.8%. The “Avg. % pass through by Group” value ([5]; cows, two per group) was 2.3%.
